Tests used:
S. aureus biofilm [1] = experiment: Biofilm determination by XTT assay; assay type: cell-based
Description: (§1) Biofilm determination by XTT assay. To determine the biofilm inhibition, overnight cultures of S. aureus were diluted with TSB containing 2-fold diluted antimicrobials at the ratio of 1: 100 and added to a 96-well plate. After incubation statically at 37 ℃ for 24h, the supernatant was carefully removed and washed with PBS. (2,3-Bis-(2-methoxy-4-nitro-5-sulfophenyl)-2H-tetrazolium-5-carboxanilide) (XTT, 0.2 mg/ml) and Phenazin (methylsufate) (PMS, 0.02 mg/ml) were mixed with 1× PBS and added to each well of the 96-well plate (100 μL/well). The plate was then incubated for 3h in the dark, and the absorbance was measured at 490 nm (A490nm). For biofilm eradication, overnight cultures of S. aureus were diluted with fresh TSB at 1:100 and incubated for 24h to pre-form biofilms. Subsequently, the supernatant was removed and washed with PBS, and 200 μL of TSB in the presence of 2-fold diluted antimicrobials was added to each well. After incubation at 37 ℃ for 24h, the supernatant was removed and stained with XTT as described above^7.

S. aureus biofilm [2] = experiment: Biofilm determination by crystal violet staining; assay type: cell-based
Description: Biofilm determination by crystal violet staining. The biofilm was formed as described above. The planktonic (non-adherent) bacteria were removed by washing the wells with PBS. Added a solution of 0.15% (wt/vol) crystal violet to each well and incubated for 15 min at room temperature. Then, the plates were gently wash with PBS to remove excess crystal violet. One hundred microliters of ethanol were added to each well to solubilize the crystal violet that has bound to the biofilm. The absorbance at 570nm (A570nm) of the solubilized crystal violet was measured with a microplate reader^6.
as §1, with “Subsequently, the supernatant was removed and washed with PBS, and 200 μL of TSB in the presence of 2-fold diluted antimicrobials was added to each well. After incubation at 37 ℃ for 24h, the supernatant was removed and stained with XTT as described above^7.” left out

TA 98 = experiment: Ames test; assay type: cell-based, Salmonella typhimurium
Description: (§2) Ames test. Genotoxicity of the compounds was determined by Ames Kit (IPHASE, Beijing, China) containing Salmonella typhimurium (TA97a, TA98, TA100, and TA1535) and E. coli WP2 uvrA (pKM101). Diclofenac and 2-aminofluorene were used as positive controls for TA97a and TA98. Methyl methanesulfonate and 2-aminofluorene were used as positive controls for TA100. Methyl methanesulfonate and 2-aminoanthracene were used as positive controls for WP2 uvrA (pKM101). NaN3 and 2-aminoanthracene were used as positive controls for TA1535. The bottom and top layer culture medium, and S9 mixed solution were prepared according to the manufacturer’s instructions. After incubation at 37℃ for 48h, the colonies were counted.

TA 1535 = experiment: Ames test; assay type: cell-based, Salmonella typhimurium
Description: as §2

TA 97a = experiment: Ames test; assay type: cell-based, Salmonella typhimurium
Description: as §2

S. aureus ATCC 43300 = experiment: Consecutive resistance inducing assay; assay type: cell-based; details: sub-MIC (1/2×MIC), after 20 days of treatment
Description: Resistance inducing assay. Consecutive and one-step resistance experiments were performed to assess the resistance-inducing ability of the compounds against S. aureus. For consecutive resistance assay, the MICs of compounds and ciprofloxacin (CIP) were determined on the first day. […] […] […] And the antimicrobial activity of the compounds against the CIP-induced strains were assessed by microdilution assay as described above. For one-step resistance assay, overnight cultured S. aureus was adjusted to a final concentration of approximately OD630=0.5 with sterile saline. One hundred microliters of the bacterial suspension were uniformly spread in pre-prepared MH agar plates containing a specific concentration of compounds. Rifampicin (RFP) was used as a positive control. The viable cells were counted on the plates after incubation at 37°C for 48h. The frequency of spontaneous drug resistance mutation was defined as the ratio of the number of resistant CFU counts to the initial CFU counts^3.

[3] = system: Salmonella typhimurium (TA97a, TA98, TA100, and TA1535) and E. coli WP2 uvrA (pKM101); experiment: Ames test (overall); assay type: cell-based
Description: as §2

**Q.** Which results are given for `Cc1nc2c(-c3ccc(Cl)cc3)cnn2c(O)c1Cc1ccccc1` [STK848198]?
**A.** concentration inhibiting biofilm viability (S. aureus biofilm [1]; biofilm inhibition): 0.125 µg/mL; concentration reducing preformed biofilm viability (S. aureus biofilm [1]; preformed biofilm): 0.5 µg/mL; concentration inhibiting biofilm biomass formation (S. aureus biofilm [2]; biofilm inhibition): 0.25 µg/mL; concentration eradicating preformed biofilm biomass (S. aureus biofilm [2]; preformed biofilm): 2 µg/mL; CFU(x±SD) (TA 98; TA 98, +S9, 25 μg/well): 6 ±1 CFU; Fold Change (TA 98; TA 98, +S9, 25 μg/well): 0.9; CFU(x±SD) (TA 98; TA 98, +S9, 50 μg/well): 5 ±1 CFU; Fold Change (TA 98; TA 98, +S9, 50 μg/well): 0.8; CFU(x±SD) (TA 98; TA 98, +S9, 100 μg/well): 4 ±1 CFU; Fold Change (TA 98; TA 98, +S9, 100 μg/well): 0.7; CFU(x±SD) (TA 98; TA 98, +S9, 200 μg/well): 5 ±1 CFU; Fold Change (TA 98; TA 98, +S9, 200 μg/well): 0.7; CFU(x±SD) (TA 98; TA 98, +S9, 400 μg/well): 4 ±0 CFU; Fold Change (TA 98; TA 98, +S9, 400 μg/well): 0.6; CFU(x±SD) (TA 98; TA 98, -S9, 25 μg/well): 5±3 CFU; Fold Change (TA 98; TA 98, -S9, 25 μg/well): 0.8; CFU(x±SD) (TA 98; TA 98, -S9, 50 μg/well): 5±1 CFU; Fold Change (TA 98; TA 98, -S9, 50 μg/well): 0.8; CFU(x±SD) (TA 98; TA 98, -S9, 100 μg/well): 3±2 CFU; Fold Change (TA 98; TA 98, -S9, 100 μg/well): 0.5; CFU(x±SD) (TA 98; TA 98, -S9, 200 μg/well): 1±2 CFU; Fold Change (TA 98; TA 98, -S9, 200 μg/well): 0.2; CFU(x±SD) (TA 98; TA 98, -S9, 400 μg/well): 0±1 CFU; Fold Change (TA 98; TA 98, -S9, 400 μg/well): 0.1; CFU(x±SD) (TA 1535; TA 1535, +S9, 25 μg/well): 2±1 CFU; Fold Change (TA 1535; TA 1535, +S9, 25 μg/well): 0.9; CFU(x±SD) (TA 1535; TA 1535, +S9, 50 μg/well): 2±1 CFU; Fold Change (TA 1535; TA 1535, +S9, 50 μg/well): 0.9; CFU(x±SD) (TA 1535; TA 1535, +S9, 100 μg/well): 2±1 CFU; Fold Change (TA 1535; TA 1535, +S9, 100 μg/well): 1; CFU(x±SD) (TA 1535; TA 1535, +S9, 200 μg/well): 2±1 CFU; Fold Change (TA 1535; TA 1535, +S9, 200 μg/well): 0.7; CFU(x±SD) (TA 1535; TA 1535, +S9, 400 μg/well): 2±1 CFU; Fold Change (TA 1535; TA 1535, +S9, 400 μg/well): 0.7; CFU(x±SD) (TA 1535; TA 1535, -S9, 25 μg/well): 2±1 CFU; Fold Change (TA 1535; TA 1535, -S9, 25 μg/well): 0.9; CFU(x±SD) (TA 1535; TA 1535, -S9, 50 μg/well): 2±2 CFU; Fold Change (TA 1535; TA 1535, -S9, 50 μg/well): 1; CFU(x±SD) (TA 1535; TA 1535, -S9, 100 μg/well): 2±2 CFU; Fold Change (TA 1535; TA 1535, -S9, 100 μg/well): 1; CFU(x±SD) (TA 1535; TA 1535, -S9, 200 μg/well): 1±1 CFU; Fold Change (TA 1535; TA 1535, -S9, 200 μg/well): 0.6; CFU(x±SD) (TA 1535; TA 1535, -S9, 400 μg/well): 1±1 CFU; Fold Change (TA 1535; TA 1535, -S9, 400 μg/well): 0.6; CFU(x±SD) (TA 97a; +S9, 25 μg/well): 6±5 CFU; Fold Change (TA 97a; +S9, 25 μg/well): 0.3; CFU(x±SD) (TA 97a; +S9, 50 μg/well): 6±2 CFU; Fold Change (TA 97a; +S9, 50 μg/well): 0.2; CFU(x±SD) (TA 97a; +S9, 100 μg/well): 4±4 CFU; Fold Change (TA 97a; +S9, 100 μg/well): 0.2; CFU(x±SD) (TA 97a; +S9, 200 μg/well): 4±1 CFU; Fold Change (TA 97a; +S9, 200 μg/well): 0.2; CFU(x±SD) (TA 97a; +S9, 400 μg/well): 5±2 CFU; Fold Change (TA 97a; +S9, 400 μg/well): 0.2; CFU(x±SD) (TA 97a; -S9, 25 μg/well): 14±2 CFU; Fold Change (TA 97a; -S9, 25 μg/well): 0.6; CFU(x±SD) (TA 97a; -S9, 50 μg/well): 11±1 CFU; Fold Change (TA 97a; -S9, 50 μg/well): 0.4; CFU(x±SD) (TA 97a; -S9, 100 μg/well): 8±2 CFU; Fold Change (TA 97a; -S9, 100 μg/well): 0.3; CFU(x±SD) (TA 97a; -S9, 200 μg/well): 10±4 CFU; Fold Change (TA 97a; -S9, 200 μg/well): 0.4; CFU(x±SD) (TA 97a; -S9, 400 μg/well): 4±3 CFU; Fold Change (TA 97a; -S9, 400 μg/well): 0.2; MIC increasement after sub-MIC treatment (S. aureus ATCC 43300): 0 fold; genotoxicity [3]: no genotoxicity

Source: paper PMC11707430, “Novel antibiotics against Staphylococcus aureus without detectable resistance by targeting proton motive force and FtsH” (MedComm, 2025)
